Measurements from US10479780B2, “Aminopyrazole derivatives” (Chugai Seiyaku Kabushiki Kaisha, priority 2015, dated 2019).
Read-outs that look alike come from different tables or passages of the source.

Experiments:
Type in all cases: biochemical
human Lck enzyme = molecular target: T1, human Lck enzyme (Homo sapiens, UniProt P06239); test: Lck enzyme inhibitory activity (time-resolved fluorometry, biotinylated peptide phosphorylation); settings: read-out: LCK_IC50
T1 construct: purchased Carna Biosciences, Inc. 08-170
Summary of the method: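 Readout pairs a europium cryptate-labelled anti-phosphotyrosine antibody with XL665-streptavidin, measured by time-resolved fluorescence. IC50 derived from percent inhibition against untreated controls.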

human Src enzyme = molecular target: T2, human Src enzyme (Homo sapiens, UniProt P12931); test: Src enzyme inhibitory activity (time-resolved fluorometry, biotinylated peptide phosphorylation); settings: read-out: SRC_IC50
T2 construct: purchased Carna Biosciences, Inc. 08-173
Summary of the method: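 Compounds were tested for blocking tyrosine phosphorylation of a biotinylated peptide substrate by recombinant human Src. Phosphorylated product was quantified by time-resolved fluorometry using europium cryptate and XL665 conjugates, and IC50 was calculated against the compound-free control.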

human Yes1 enzyme = molecular target: T3, human Yes1 enzyme (Homo sapiens, UniProt P07947); test: Yes1 enzyme inhibitory activity (time-resolved fluorometry, biotinylated peptide phosphorylation); settings: read-out: YES_IC50
T3 construct: made in house
Summary of the method: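 Inhibition was expressed against a compound-free control to give IC50, using TR-FRET read-out (Eu-cryptate anti-pTyr antibody, streptavidin-XL665).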

[1] = biotinylated peptide phosphorylation

T3 sequence (P07947 whole entry): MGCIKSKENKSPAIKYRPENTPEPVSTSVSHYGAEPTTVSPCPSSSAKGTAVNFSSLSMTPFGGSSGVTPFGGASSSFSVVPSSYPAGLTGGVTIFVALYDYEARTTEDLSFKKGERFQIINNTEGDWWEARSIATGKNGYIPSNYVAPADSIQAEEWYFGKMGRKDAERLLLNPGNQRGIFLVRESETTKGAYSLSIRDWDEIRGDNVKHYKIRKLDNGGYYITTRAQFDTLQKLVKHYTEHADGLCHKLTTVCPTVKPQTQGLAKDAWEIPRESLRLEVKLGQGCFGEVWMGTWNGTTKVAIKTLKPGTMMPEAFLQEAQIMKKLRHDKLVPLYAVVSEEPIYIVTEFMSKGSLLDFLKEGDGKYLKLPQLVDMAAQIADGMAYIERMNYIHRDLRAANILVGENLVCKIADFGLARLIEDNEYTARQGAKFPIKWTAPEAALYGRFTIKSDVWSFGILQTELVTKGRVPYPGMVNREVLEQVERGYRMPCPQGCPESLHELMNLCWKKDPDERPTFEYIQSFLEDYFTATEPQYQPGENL
T2 sequence (P12931 whole entry): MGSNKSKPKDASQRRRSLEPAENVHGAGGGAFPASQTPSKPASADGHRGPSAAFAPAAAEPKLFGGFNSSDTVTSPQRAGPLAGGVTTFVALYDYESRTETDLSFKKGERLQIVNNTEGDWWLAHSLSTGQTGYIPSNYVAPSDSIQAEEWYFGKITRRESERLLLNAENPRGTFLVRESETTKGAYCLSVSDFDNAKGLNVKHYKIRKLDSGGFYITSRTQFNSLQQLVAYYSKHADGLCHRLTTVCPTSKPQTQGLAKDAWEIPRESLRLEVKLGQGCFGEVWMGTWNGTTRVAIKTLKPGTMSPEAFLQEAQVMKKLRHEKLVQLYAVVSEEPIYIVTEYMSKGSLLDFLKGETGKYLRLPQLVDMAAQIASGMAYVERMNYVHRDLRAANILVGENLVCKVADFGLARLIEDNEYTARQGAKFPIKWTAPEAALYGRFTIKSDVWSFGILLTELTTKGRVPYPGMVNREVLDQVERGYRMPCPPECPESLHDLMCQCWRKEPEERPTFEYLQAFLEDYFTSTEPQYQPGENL
T1 sequence (P06239 whole entry): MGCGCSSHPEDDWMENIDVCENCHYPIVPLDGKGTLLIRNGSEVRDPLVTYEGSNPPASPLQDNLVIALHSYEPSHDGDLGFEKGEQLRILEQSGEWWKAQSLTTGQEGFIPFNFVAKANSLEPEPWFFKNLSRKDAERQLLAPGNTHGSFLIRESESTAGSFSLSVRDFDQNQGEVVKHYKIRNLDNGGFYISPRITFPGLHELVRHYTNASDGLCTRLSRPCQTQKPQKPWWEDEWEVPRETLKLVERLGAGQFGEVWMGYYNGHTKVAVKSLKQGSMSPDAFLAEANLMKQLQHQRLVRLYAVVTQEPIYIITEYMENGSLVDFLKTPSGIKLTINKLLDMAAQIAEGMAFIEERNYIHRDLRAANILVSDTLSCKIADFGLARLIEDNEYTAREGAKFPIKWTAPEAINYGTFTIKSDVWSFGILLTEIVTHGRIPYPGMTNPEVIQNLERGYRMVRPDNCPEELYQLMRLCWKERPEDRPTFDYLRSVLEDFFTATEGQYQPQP

Cc1cc2cc(C(=O)c3cnn(-c4cnc(Oc5ccccc5F)cc4C)c3N)[nH]c2cc1NS(=O)(=O)c1cccc(Cl)c1 [Example 5-1-464, N-[2-[5-amino-1-[6-(2-fluorophenoxy)-4-methylpyridin-3-yl]pyrazole-4-carbonyl]-5-methyl-1H-indol-6-yl]-3-chlorobenzenesulfonamide]
IC50 (human Lck enzyme; [1]): 310 nM
IC50 (human Src enzyme; [1]): 1200 nM
IC50 (human Yes1 enzyme; [1]): 9.3 nM

Cc1cc(Oc2ccccc2F)ccc1-n1ncc(C(=O)c2cc3cc(F)c(NS(=O)(=O)N4CCOCC4)cc3[nH]2)c1N [Example 4-5-002, N-[2-[5-amino-1-[4-(2-fluorophenoxy)-2-methylphenyl]pyrazole-4-carbonyl]-5-fluoro-1H-indol-6-yl]morpholine-4-sulfonamide]
IC50 (human Lck enzyme; [1]): 23 nM
IC50 (human Src enzyme; [1]): 49 nM
IC50 (human Yes1 enzyme; [1]): 0.76 nM

Cc1cc(-n2ncc(C(=O)c3cc4cc(F)c(NS(C)(=O)=O)cc4[nH]3)c2N)ccc1Oc1ccccc1F [Example 5-1-017, N-[2-[5-amino-1-[4-(2-fluorophenoxy)-3-methylphenyl]pyrazole-4-carbonyl]-5-fluoro-1H-indol-6-yl]methanesulfonamide]
IC50 (human Lck enzyme): 630 nM
IC50 (human Src enzyme): 2400 nM
IC50 (human Yes1 enzyme): 4.5 nM

COc1cc2cc(C(=O)c3cnn(-c4cnc(Oc5c(F)cccc5F)cc4C)c3N)[nH]c2cc1NS(=O)(=O)C1CC1 [Example 4-24-035, N-[2-[5-amino-1-[6-(2,6-difluorophenoxy)-4-methylpyridin-3-yl]pyrazole-4-carbonyl]-5-methoxy-1H-indol-6-yl]cyclopropanesulfonamide]
IC50 (human Lck enzyme; [1]): 5 nM
IC50 (human Src enzyme; [1]): 47 nM
IC50 (human Yes1 enzyme; [1]): 1.2 nM

Cc1cc(Oc2ccccc2F)ccc1-n1ncc(C(=O)c2cc3cc(N4CCOCC4)c(N4CCOCC4)cc3[nH]2)c1N [Example 5-1-094, [5-amino-1-[4-(2-fluorophenoxy)-2-methylphenyl]pyrazol-4-yl]-(5,6-dimorpholin-4-yl-1H-indol-2-yl)methanone]
IC50 (human Lck enzyme): 4.1 nM
IC50 (human Src enzyme): 19 nM
IC50 (human Yes1 enzyme): 2.9 nM

Cc1cc2cc(C(=O)c3cnn(-c4cnc(Oc5ccc(F)cc5)cc4C)c3N)[nH]c2cc1N1CCCS1(=O)=O [Example 4-2-119, [5-amino-1-[6-(4-fluorophenoxy)-4-methylpyridin-3-yl]pyrazol-4-yl]-[6-(1,1-dioxo-1,2-thiazolidin-2-yl)-5-methyl-1H-indol-2-yl]methanone]
IC50 (human Lck enzyme; [1]): 23 nM
IC50 (human Src enzyme; [1]): 70 nM
IC50 (human Yes1 enzyme; [1]): 7.4 nM

Nc1c(C(=O)c2cc3cc(F)c(NS(=O)(=O)CCCF)cc3[nH]2)cnn1-c1c(Cl)cc(Oc2cccc(F)c2F)cc1Cl [Example 5-1-028, N-[2-[5-amino-1-[2,6-dichloro-4-(2,3-difluorophenoxy)phenyl]pyrazole-4-carbonyl]-5-fluoro-1H-indol-6-yl]-3-fluoropropane-1-sulfanamide]
IC50 (human Lck enzyme): 200 nM
IC50 (human Src enzyme): 350 nM
IC50 (human Yes1 enzyme): 13 nM

Cc1cc(Oc2cccc(F)c2F)cc(F)c1-n1ncc(C(=O)c2cc3cc(NS(C)(=O)=O)c(F)cc3[nH]2)c1N [Example 4-2-100, N-[2-[5-amino-1-[4-(2,3-difluorophenoxy)-2-fluoro-6-methylphenyl]pyrazole-4-carbonyl]-6-fluoro-1H-indol-5-yl]methanesulfonamide]
IC50 (human Lck enzyme; [1]): 2.1 nM
IC50 (human Src enzyme; [1]): 27 nM
IC50 (human Yes1 enzyme; [1]): 0.73 nM

Cc1cc(Oc2ccccc2F)cc(F)c1-n1ncc(C(=O)c2cc3cc(OCC(F)F)c(NC4CN(S(C)(=O)=O)C4)cc3[nH]2)c1N [Example 4-23-027, [5-amino-1-[2-fluoro-4-(2-fluorophenoxy)-6-methylphenyl]pyrazol-4-yl]-[5-(2,2-difluoroethoxy)-6-[(1-methylsulfonylazetidin-3-yl)amino]-1H-indol-2-yl]methanone]
IC50 (human Lck enzyme; [1]): 7.6 nM
IC50 (human Src enzyme; [1]): 16 nM
IC50 (human Yes1 enzyme; [1]): 1.9 nM

Cc1cc(Oc2c(F)cccc2F)ncc1-n1ncc(C(=O)c2cc3cc(C4CC4)c(NS(=O)(=O)C4CCOCC4)cc3[nH]2)c1N [Example 5-1-395, N-[2-[5-amino-1-[6-(2,6-difluorophenoxy)-4-methylpyridin-3-yl]pyrazole-4-carbonyl]-5-cyclopropyl-1H-indol-6-yl]oxane-4-sulfonamide]
IC50 (human Lck enzyme): 66 nM
IC50 (human Src enzyme): 210 nM
IC50 (human Yes1 enzyme): 4.8 nM

Cc1cc(Oc2cc(F)cc(F)c2)ncc1-n1ncc(C(=O)c2cc3cc(F)c(NS(=O)(=O)CCCF)cc3[nH]2)c1N [Example 4-2-028, N-[2-[5-amino-1-[6-(3,5-difluorophenoxy)-4-methylpyridin-3-yl]pyrazole-4-carbonyl]-5-fluoro-1H-indol-6-yl]-3-fluoropropane-1-sulfonamide]
IC50 (human Lck enzyme; [1]): 120 nM
IC50 (human Src enzyme; [1]): 340 nM
IC50 (human Yes1 enzyme; [1]): 15 nM

Cc1cc(Oc2ccccc2F)ccc1-n1ncc(C(=O)c2cc3cc(F)c(N4CCCC4=O)cc3[nH]2)c1N [Example 5-1-103, 1-[2-[5-amino-1-[4-(2-fluorophenoxy)-2-methylphenyl]pyrazole-4-carbonyl]-5-fluoro-1H-indol-6-yl]pyrrolidin-2-one]
IC50 (human Lck enzyme): 1.1 nM
IC50 (human Src enzyme): 5.2 nM
IC50 (human Yes1 enzyme): 0.38 nM

Cc1cc(Oc2ccccc2F)ncc1-n1ncc(C(=O)c2cc3cc(OC(F)F)c(NS(C)(=O)=O)cc3[nH]2)c1N [Example 4-24-008, N-[2-[5-amino-1-[6-(2-fluorophenoxy)-4-methylpyridin-3-yl]pyrazole-4-carbonyl]-5-(difluoromethoxy)-1H-indol-6-yl]methanesulfonamide]
IC50 (human Lck enzyme; [1]): 19 nM
IC50 (human Src enzyme; [1]): 99 nM
IC50 (human Yes1 enzyme; [1]): 2.1 nM

COc1ccnc(S(=O)(=O)Nc2cc3[nH]c(C(=O)c4cnn(-c5cnc(Oc6ccccc6F)cc5C)c4N)cc3cc2F)c1 [Example 5-1-514, N-[2-[5-amino-1-[6-(2-fluorophenoxy)-4-methylpyridin-3-yl]pyrazole-4-carbonyl]-5-fluoro-1H-indol-6-yl]-4-methoxypyridine-2-sulfonamide]
IC50 (human Lck enzyme; [1]): 140 nM
IC50 (human Src enzyme; [1]): 760 nM
IC50 (human Yes1 enzyme; [1]): 3.3 nM

Cc1cc(Oc2ccccc2F)ccc1-n1ncc(C(=O)c2cc3cc(OC(F)F)c(NC4COC4)cc3[nH]2)c1N [Example 4-23-009, [5-amino-1-[4-(2-fluorophenoxy)-2-methylphenyl]pyrazol-4-yl]-[5-(difluoromethoxy)-6-(oxetan-3-ylamino)-1H-indol-2-yl]methanone]
IC50 (human Lck enzyme; [1]): 8.9 nM
IC50 (human Src enzyme; [1]): 22 nM
IC50 (human Yes1 enzyme; [1]): 3.2 nM

COc1cc2cc(C(=O)c3cnn(-c4cnc(Oc5ccccc5Cl)cc4C)c3N)[nH]c2cc1NS(C)(=O)=O [Example 4-1-010, N-[2-[5-amino-1-[6-(2-chlorophenoxy)-4-methylpyridin-3-yl]pyrazole-4-carbonyl]-5-methoxy-1H-indol-6-yl]methanesulfonamide]
IC50 (human Lck enzyme; [1]): 25 nM
IC50 (human Src enzyme; [1]): 46 nM
IC50 (human Yes1 enzyme; [1]): 1.1 nM

Cc1cc(Oc2cccc(Cl)c2)ccc1-n1ncc(C(=O)c2cc3cc(F)c(C4CCN(C(C)C)CC4)cc3[nH]2)c1N [Example 4-2-013, [5-amino-1-[4-(3-chlorophenoxy)-2-methylphenyl]pyrazol-4-yl]-[5-fluoro-6-(1-propan-2-ylpiperidin-4-yl)-1H-indol-2-yl]methanone]
IC50 (human Lck enzyme; [1]): 9.7 nM
IC50 (human Src enzyme; [1]): 49 nM
IC50 (human Yes1 enzyme; [1]): 1.1 nM

Cc1cc(Oc2ccccc2F)ncc1-n1ncc(C(=O)c2cc3cc(OC(F)F)c(NS(=O)(=O)N4CCOCC4)cc3[nH]2)c1N [Example 4-22-002, N-[2-[5-amino-1-[6-(2-fluorophenoxy)-4-methylpyridin-3-yl]pyrazole-4-carbonyl]-5-(difluoromethoxy)-1H-indol-6-yl]morpholine-4-sulfonamide]
IC50 (human Lck enzyme; [1]): 68 nM
IC50 (human Src enzyme; [1]): 240 nM
IC50 (human Yes1 enzyme; [1]): 3 nM

Cc1cc(Oc2c(F)cccc2F)ncc1-n1ncc(C(=O)c2cc3cc(OCC(F)F)c(NS(=O)(=O)Cc4ccccc4)cc3[nH]2)c1N [Example 5-1-296, N-[2-[5-amino-1-[6-(2,6-difluorophenoxy)-4-methylpyridin-3-yl]pyrazole-4-carbonyl]-5-(2,2-difluoroethoxy)-1H-indol-6-yl]-1-phenylmethanesulfonamide]
IC50 (human Lck enzyme): 46 nM
IC50 (human Src enzyme): 150 nM
IC50 (human Yes1 enzyme): 5.9 nM

CC(C)N1CCC(c2cc3[nH]c(C(=O)c4cnn(-c5ccc(Oc6ccccc6Cl)cc5)c4N)cc3cc2F)CC1 [Example 5-1-015, [5-amino-1-[4-(2-chlorophenoxy)phenyl]pyrazol-4-yl]-[5-fluoro-6-(1-propan-2-ylpiperidin-4-yl)-1H-indol-2-yl]methanone]
IC50 (human Lck enzyme): 2.2 nM
IC50 (human Src enzyme): 23 nM
IC50 (human Yes1 enzyme): 1.5 nM

COc1cccc(S(=O)(=O)Nc2cc3[nH]c(C(=O)c4cnn(-c5cnc(Oc6ccccc6F)cc5C)c4N)cc3cc2C)n1 [Example 5-1-483, N-[2-[5-amino-1-[6-(2-fluorophenoxy)-4-methylpyridin-3-yl]pyrazole-4-carbonyl]-5-methyl-1H-indol-6-yl]-6-methoxypyridine-2-sulfonamide]
IC50 (human Lck enzyme; [1]): 250 nM
IC50 (human Src enzyme; [1]): 710 nM
IC50 (human Yes1 enzyme; [1]): 6.7 nM

Cc1cc(Oc2ccccc2F)ncc1-n1ncc(C(=O)c2cc3cc(F)c(NS(=O)(=O)c4cc(F)cc(F)c4)cc3[nH]2)c1N [Example 5-1-564, N-[2-[5-amino-1-[6-(2-fluorophenoxy)-4-methylpyridin-3-yl]pyrazole-4-carbonyl]-5-fluoro-1H-indol-6-yl]-3,5-difluorobenzenesulfonamide]
IC50 (human Lck enzyme; [1]): 680 nM
IC50 (human Src enzyme; [1]): 1500 nM
IC50 (human Yes1 enzyme; [1]): 14 nM

Cc1cc(Oc2c(F)cccc2F)ncc1-n1ncc(C(=O)c2cc3cc(C(C)C)c(NS(=O)(=O)C4CCCC4)cc3[nH]2)c1N [Example 5-1-306, N-[2-[5-amino-1-[6-(2,6-difluorophenoxy)-4-methylpyridin-3-yl]pyrazole-4-carbonyl]-5-propan-2-yl-1H-indol-6-yl] cyclopentanesulfonamide]
IC50 (human Lck enzyme): 150 nM
IC50 (human Src enzyme): 630 nM
IC50 (human Yes1 enzyme): 23 nM
